Results taken from patent publication US20090227669A1, “Compositions and Methods for Perioperative Bladder Instillation” (THE UNIVERSITY OF TOLEDO, priority 2004, published 2009).

What was measured:
AY-27 cells [1] = test: Intravesical EGCG instillation after AY-27 tumor cell implantation in cauterized rat bladder; format: in vivo, Fisher 344 rats
Description: Single Polyphenol (EGCG): Fisher 344 rats were maintained under guidelines of the Medical College of Ohio Institutional Animal Care and Use Committee. A combination ketamine (80 mg/kg)/xylazine (12 mg/kg) intraperitoneal injection was used to anesthetize the rats prior to surgery. The abdomen was shaved and prepped with an iodine solution under sterile conditions. Oxytetracycline 20 mg was injected subcutaneously for antibacterial prophylaxis. Under 4× microscopic magnification, a 1.5 cm midline incision exposed the bladder. A sterile, 22 gauge Angiocath cannula was then advanced transurethrally. A blunt-tipped 24 gauge copper wire was then advanced through the catheter and a […] current was used to cauterize the bladder wall creating a small, white puckered area. The skin and muscular layers of the abdominal wall were closed with a running 4-0 silk suture.
AY-27 cells suspended in 0.25 cc of serum free RPMI-1640 medium were instilled transurethrally into 40 rats. The catheters were then capped and the tumor cells were allowed to dwell inside the bladder for 30 minutes. After tumor cell instillation, twelve rats (Group I) had two, separately hourly instillations of culture medium. Twenty-eight rats (Group II) were treated with a freshly prepared solution of 0.25 cc, 200 microM EGCG solution in RPLMI-1640 medium for 2 separate dwell times of one hour. […]

[2] = orally administered; along with at least five metabolites; cited from earlier work
AY-27 cells [3] = test: DNA ladder assay in AY-27 cells; format: cell-based, rat
[4] = system: AY-27 rat transitional cancer cell line; test: AY-27 cell survival/growth under EGCG treatment; format: cell-based

O=C(O[C@@H]1Cc2c(O)cc(O)cc2O[C@@H]1c1cc(O)c(O)c(O)c1)c1cc(O)c(O)c(O)c1 [EGCG, epigallocatechin-gallate]
tumor growth rate (AY-27 cells [1]; 200 microM EGCG, 0.25 cc, 2 separate dwell times of one hour, euthanized three weeks later, n=28, controls 100%): 36% | incidence of bladder tumor implantation (AY-27 cells [1]; intravesical EGCG at 200 microM for 2 hours): significantly reduce | fraction of total administered EGCG found in urine [2]: 0.03-0.59% | banding pattern on DNA ladder assay (apoptosis) (AY-27 cells [3]): weak banding pattern | cellular growth of AY-27 cell line [4]: inhibits cellular growth | cellular survival ([4]; after two hours of treatment at all concentrations of EGCG): No cellular survival
